Data as given in patent US8569482B2, “Nanoparticulate probe for in vivo monitoring of tissue oxygenation” (priority 2003, dated 2013).
Where “and” joins values, the source holds several entries; their conditions need not be identical. Identical values can stand only once. Entries after “also recorded” stand apart in the source; their conditions may differ.

Legend:
[1] = tested on: mouse aortic endothelial cells (MAECs); format: cell-based
[2] = tested on: bovine lung microvascular endothelial cells (BLMVECs)
Procedure: Bovine Lung Microvasular Endothelial Cells (BLMVECs) Culture The BLMVECs used in this study were obtained from the VEC Technologies, Inc, New York. BLMVECs cultured in MEM were maintained in 75 mm flasks at 37° C. in a humidified atmosphere of 5% CO2/95% air and grown to contact-inhibited monolayers with a typical cobblestone morphology [157]. Cells from each primary flask were detached with 0.05% trypsin, resuspended in fresh medium, and cultured in complete medium to 70% confluency for other studies. Cells from passages 10-14 were used in all the experiments.
Preparation of Particulates for Cell Culture Studies Microcrystalline particulates of LiNc-BuO were suspended in complete MEM medium (10 mg/0.5 ml) and sonicated for 30 sec pulse for ten times on ice with a probe sonicator at a setting of 5. The particulate suspension was cooled for 1 min between two successive 30 sec bursts of sonication. At the end of sonication, the suspension was placed on ice for exactly 2 min to allow the heavier particulates to settle down at the bottom of the tube and the supernatant liquid was transferred to a separate tube for intracellular delivery. The solution contained fine particulates of LiNc-BuO with a particulate size <2 μm. All the preparations were carried out under sterile conditions.
Internalization of Particulates into Endothelial Cells BLMVECs, at 70% confluence (10^4 cells/35 mm dish), in 1 ml complete MEM were treated with 50 μl of LiNc-BuO particulate suspension that contained particulates of <2 μm prepared by procedure as described under Materials and Methods. The cells were maintained at 37° C. under 95% air/5% CO2 environment. At 6 h intervals, for 72 h, cells were examined under light microscope for internalization of LiNc-BuO particulates. […] The cell pellet was resuspended in MEM containing glucose (0.5 g per 500 ml), at a density of 2×10^5 cells/ml and used for EPR analysis. Cells after LiNc-BuO internalization and repeated washings were photographed under an inverted microscope while still adherent to the substratum of the 35 mm dish. Cell viability was assessed by light microscopy and Alamar Blue assay according to the manufacturer's recommendations. Cell separation by trypsinization was avoided to keep the cell morphology and function in tact.
A 20 μL volume of the cell suspension containing 4,000 cells and 10 μM TAM was drawn into a gas-permeable Teflon tube and subjected to EPR spectroscopy as described below. The measurements were also carried out with Menadione (50 μM) and KCN (100 μM).
EPR Measurements The EPR measurements were carried out using a Bruker X-band (9.8 GHz) spectrometer (Bruker Instruments, Karlshrue, Germany) equipped with TM110 cavity. EPR spectral acquisitions were performed using custom-developed data acquisition software (SPEX) that was capable of fully automated data acquisition and processing. Unless otherwise mentioned, the EPR line-widths reported are peak-to-peak widths (.Bpp) of the first derivative spectra.
Simultaneous Measurements of LiNc-BuO and TAM Line-Shapes LiNc-BuO and TAM were used as site specific oximetry probes to measure intra- and extracellular oxygen concentration, respectively. Both LiNc-BuO and TAM give a single-line EPR spectrum, whose amplitude (intensity) and width depend on the amount/concentration of the probe and oxygen, respectively.

[3] = tested on: K56 (an erythroleukemic cell line) and A 431 (an epidermal carcinoma cell line); details: 200 μM; cited from earlier work
[4] = Effect of biological oxidoreductants, pH and radiation on EPR stability and oxygen response; format: physicochemical
Text: Effect of Biological Oxidoreductants, pH, Temperature, and Radiation Since our goal was to use the newly synthesized particulate material for biological applications, we thoroughly investigated the EPR stability (paramagnetism) as well as sensitivity of the EPR line-width to molecular oxygen in presence of a variety of biological oxidants, reductants, pH and radiation. […] We also observed that pH of the medium in the range 2-10 had no effect on their EPR sensitivity to oxygen. We also treated the particulates with 15.5 Gy of Cobalt-60 γ-ray irradiation for 10 min and found no effect on the EPR properties of the particulates.

[5] = tested on: gastrocnemius muscle tissue of C3H mice; assay: Long-term stability and oxygen response of particulates implanted in gastrocnemius muscle; format: in vivo; details: versus original unimplanted particulate, through 180 day study
Procedure: Animal Studies Female C3H mice were used in the present work. The mice were supplied through the Frederick Cancer Research Center Animal Production, Frederick, Md. The animals were received at 6 weeks of age and housed five per cage in climate-controlled rooms and allowed food and acidified water ad lib. The animals were on average 50 days old at the time of experimentation and weighed 25±3 g. Experiments were conducted according to the principles outlined in the Guide for the Care and Use of Laboratory Animals prepared by the Institute of Laboratory Animal Resources, National Research Council.
Implantation of LiNc-BuO in Tumor and Gastrocnemius Muscle of Mice Mice were anesthetized with breathing of isoflurane (1.5%)—air mixture delivered through a nose cone. […]
Stability in Tissues In order to evaluate the long-term stability of these particulates in tissues, we implanted the particulates in the gastrocnemius muscle tissue of mice and performed repeated measurements of pO2 in the same animals over a period of time. […] The EPR spectrum of the particulate in the leg was recorded periodically up to 180 days following the implantation of particulate (FIG. 4). […] Mice were periodically sacrificed through the 180 day study period and tissue pO2 values were assessed to verify the registration of anoxic pO2 in the dead tissue. […]

[6] = Reduction of particle size using high frequency ultrasound; format: physicochemical; details: after 20 kHz then 269-1062.4 kHz sonication in water
Procedure: LiNc-BuO particles were crushed to a fine powder using a spatula. LiNc-BuO (20 mg) was suspended in […] of water without any additives (a total of 5 samples were made). The samples were then sonicated at 20 kHz frequency. 20 kHz sonolysis was conducted at a power setting of “2” for a total time of 5 minutes. All 5 samples were sonicated in this way. The samples were then allowed to sit overnight. The following day, the supernatant was extracted from all samples and placed in a measuring cylinder to make a 5 ml sample of suspended, small particles in aqueous solution. 1 ml of this stock was used to determine the particle size. The remaining 4 ml stock LiNc-BuO suspension was sonicated at various frequencies in the following way: 1 ml stock was placed in a test tube and suspended in the ultrasound bath which was operated at either 269, 354, 803 or 1062.4 kHz and a power of 60 W for a total time of 10 minutes. The 1 ml sample was then diluted to 2 ml using Milli-Q filtered water and the particle size determined. […] The procedure yielded particulates with mean size, 240 nm, with a min size, 72 nm.

[7] = tested on: Human arterial smooth muscle cells (HASMCs)
Procedure: Cultute of Smooth Muscle Cells Human arterial smooth muscle cells (HASMCs) were obtained from Clonetics, San Diego, Calif. at passage 4. Cells were cultured and passed in Ham's medium containing 225 ml of DMEM, 225 ml of F-12 medium, 50 ml of FBS (10%), 5 ml of glutamate and 5 ml of antibiotics in a final volume of 500 ml. Cell cultures were maintained at 37° C. under 95% air/5% CO2 environment in 35 mm dishes. HASMCs up to passage 11 were used in the current study.
Preparation of Particulates for Cell Culture Studies Fine crystals of freshly synthesized LiNc-BuO were suspended in Ham's medium (10 mg/0.5 ml) and sonicated ten times for 30 sec on ice with a probe sonicator at a setting of 5. The particulate mixture was cooled on ice for 1 min between two successive 30 sec burst of sonication. […] The size of the particulates for intracellular delivery was <2 μm as determined by optical microscopy.
Internalization of Particulates into Smooth Muscle Cells HMSMCs, at 70% confluence (10^4 cells/dish), in 1 ml Ham's medium were treated with 50 μl of LiNc-BuO particulate suspension that contained particulates of <2 μm prepared by the procedure as mentioned before. […] Cell viability was assessed by light microscopy and Alamar Blue assay according to the manufacturer's recommendations.

[8] = switching gas between nitrogen and room air
[9] = particulates <2 μm, within 18 h

## c1ccc2c(c1)[I+]c1ccccc1-2 [DPI, diphenyleneiodonium chloride]
[1]
  effect on oxygen consumption rate (OCR): complete inhibition of oxygen consumption; also recorded: complete inhibition of the OCR; also recorded: completely blocked

## CC1=CC(=O)c2ccccc2C1=O [menadione]
[1]
  effect on oxygen consumption rate (OCR): increased rates of oxygen consumption; also recorded: increased the OCRs
[1]; 50 μM
  increase in OCR: two-fold increase
[1]; 10 and 50 μM, measured immediately
  effect on OCR at lower concentrations: significant increase in the OCR
[1]; 100 and 200 μM, measured immediately
  effect on OCR at higher concentrations: decrease in the OCR; also recorded: significantly less compared to the control values
[2]; menadione 50 μM, cyanide 100 μM, listed as Menadione
  effect on intra- and extracellular pO2 and oxygen gradient: did not affect significantly
[3]
  increase of intra- and extracellular pO2: 10-15%

## C=C(C)[C@H]1Cc2c(ccc3c2O[C@@H]2COc4cc(OC)c(OC)cc4[C@@H]2C3=O)O1 [rotenone]
[1]
  effect on oxygen consumption rate (OCR): complete inhibition of oxygen consumption; also recorded: complete inhibition of the OCR; also recorded: completely inhibited the consumption of oxygen

## Lithium 5,9,14,18,23,27,32,36-octa-n-butoxy-2,3-naphthalocyanine [LiNc-BuO]
[4]; 15.5 Gy Cobalt-60, 10 min
  effect of gamma irradiation on EPR properties: no effect
[4]; pH 2-10
  effect of pH on EPR sensitivity to oxygen: no effect
[4]; superoxide, hydroxyl, H2O2, singlet oxygen, alkylperoxyl, nitric oxide, GSH, ascorbate, 30 min
  effect of oxidants and reductants on EPR spectrum or oxygen response: did not show any effect
[5]
  oxygen sensitivity of particulates recovered from dead tissue: not changed
[6]
  mean particle size: 240 nm
  min particle size: 72 nm
other
  spin density relative to LiPc: seven-fold higher
0% oxygen, X-band, room temperature
  anoxic peak-to-peak EPR line-width: 210 mg
20.9% oxygen (159 mmHg)
  peak-to-peak EPR line-width in room air: 1550 mg
100% oxygen, 760 mmHg
  peak-to-peak EPR line-width in 100% oxygen: 6675 mg
X-band
  microwave power saturation: not saturable for up to 25 mW; also recorded: nonsatuarable up to 25 mW
Linear in pO2 range measured (0-160 or 0-760 mmHg)
  oxygen sensitivity (slope of line-width versus pO2): 8.5 mG/mmHg
Physiological range
  pO2 resolution: ~0.2 mmHg and ~0.1 mmHg
Suspended in PBS, 10% oxygen (pO2 76 mmHg)
  peak-to-peak EPR line-width at 10% oxygen: 852 mg
[8]
  response time, deoxygenation: ~20 s
  response time, oxygenation: ~1 s
water, PBS, cell culture media
  effect of aqueous dispersion media on line-width and lineshape: not affected
[7]
  cytotoxicity (light microscopy, Alamar Blue): no apparent cytotoxicity
[7]; [9]
  internalization of particulates in cells: almost all the cells in the 35 mm dish internalized the particulates
[2]
  cytotoxicity (light microscopy, Alamar Blue): no cytotoxicity
  viability of cells that internalized probe (Trypan blue exclusion): > 95%
[2]; in comparison with TAM standard
  mean spin density of particulates internalized in a single cell: 6×10^11 spins/cell
[2]; [9]
  cells that internalized the particulates: ~95%
